Measurements: article PMC8568899, “Molecular mechanisms of the CdnG-Cap5 antiphage defense system employing 3′,2′-cGAMP as the second messenger” (Nature Communications, 2021)
Substitutions are numbered along the chain they refer to.

How the values were obtained:
Experiment in all cases: DNA degradation, agarose gel
Format in all cases: biochemical
AsCap5 [1] = molecular target: T1, AsCap5 (Asticcacaulis sp., UniProt Z9IC27YPF2, R310Q); details: activator; 10 nM cGAMP; linearized plasmid 25 nM; 1 mM MgCl2, 0.5 mM MnCl2, pH 7.4, 37 °C, 15 min
T1 construct: full length; E. coli BL21(DE3), N-terminal 6xHis-SUMO tag cut with Ulp1; codon-optimized gene; homodimer (N-terminal HNH, C-terminal SAVED)
T1 sequence (Z9IC27YPF2 1-384 R310Q): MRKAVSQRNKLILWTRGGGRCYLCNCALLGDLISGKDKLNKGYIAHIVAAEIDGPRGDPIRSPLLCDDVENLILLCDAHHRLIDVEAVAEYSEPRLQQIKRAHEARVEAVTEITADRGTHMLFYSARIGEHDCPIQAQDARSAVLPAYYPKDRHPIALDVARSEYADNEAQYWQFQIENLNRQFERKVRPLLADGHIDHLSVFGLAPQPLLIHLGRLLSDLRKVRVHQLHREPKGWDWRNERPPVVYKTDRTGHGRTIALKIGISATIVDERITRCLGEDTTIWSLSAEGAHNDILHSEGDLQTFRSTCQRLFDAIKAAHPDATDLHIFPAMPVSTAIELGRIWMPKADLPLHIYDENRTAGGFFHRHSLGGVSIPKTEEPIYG

AsCap5 [2] = molecular target: T2, AsCap5 (Asticcacaulis sp., UniProt Z9IC27YPF2); details: activator; 50 nM Cap5, linearized plasmid 25 nM; 1 mM MgCl2, 0.5 mM MnCl2, pH 7.4, 37 °C, 15 min; 10-fold dilution steps
T2 construct: full length; E. coli BL21(DE3), N-terminal 6xHis-SUMO tag cut with Ulp1; codon-optimized gene; homodimer (N-terminal HNH, C-terminal SAVED)
T2 sequence (Z9IC27YPF2 1-384): T1 sequence (Z9IC27YPF2 1-384 R310Q) with Q310R

AsCap5 [3] = molecular target: T3, AsCap5 (Asticcacaulis sp., UniProt Z9IC27YPF2, K347A); details: activator; 10 nM cGAMP; linearized plasmid 25 nM; 1 mM MgCl2, 0.5 mM MnCl2, pH 7.4, 37 °C, 15 min
T3 construct: full length; E. coli BL21(DE3), N-terminal 6xHis-SUMO tag cut with Ulp1; codon-optimized gene; homodimer (N-terminal HNH, C-terminal SAVED)
T3 sequence (Z9IC27YPF2 1-384 K347A): T1 sequence (Z9IC27YPF2 1-384 R310Q) with Q310R, K347A

AsCap5 [4] = molecular target: T4, AsCap5 (Asticcacaulis sp., UniProt Z9IC27YPF2, R310K); details: activator; 10 nM cGAMP; linearized plasmid 25 nM; 1 mM MgCl2, 0.5 mM MnCl2, pH 7.4, 37 °C, 15 min
T4 construct: full length; E. coli BL21(DE3), N-terminal 6xHis-SUMO tag cut with Ulp1; codon-optimized gene; homodimer (N-terminal HNH, C-terminal SAVED)
T4 sequence (Z9IC27YPF2 1-384 R310K): T1 sequence (Z9IC27YPF2 1-384 R310Q) with Q310K

LlCap5 [5] = molecular target: T5, LlCap5 (Lactococcus cremoris, UniProt A0A1E7G0A2); details: activator; 50 nM Cap5, linearized plasmid 25 nM; 1 mM MgCl2, 0.5 mM MnCl2, pH 7.4, 37 °C, 15 min; 10-fold dilution steps
T5 construct: gene AJ89_14580; full length; E. coli BL21(DE3), N-terminal 6xHis-SUMO tag cut with Ulp1; codon-optimized gene; homodimer (N-terminal HNH, C-terminal SAVED)
T5 sequence (A0A1E7G0A2 entry or part of it): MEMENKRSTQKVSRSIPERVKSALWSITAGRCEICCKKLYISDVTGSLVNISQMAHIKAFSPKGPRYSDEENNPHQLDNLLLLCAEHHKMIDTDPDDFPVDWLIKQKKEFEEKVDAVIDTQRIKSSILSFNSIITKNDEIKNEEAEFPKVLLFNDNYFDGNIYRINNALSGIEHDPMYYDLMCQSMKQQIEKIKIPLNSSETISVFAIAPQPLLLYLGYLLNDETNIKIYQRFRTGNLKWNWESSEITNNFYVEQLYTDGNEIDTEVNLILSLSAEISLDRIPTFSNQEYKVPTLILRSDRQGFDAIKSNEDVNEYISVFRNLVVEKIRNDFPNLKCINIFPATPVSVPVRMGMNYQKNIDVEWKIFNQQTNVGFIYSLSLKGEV

AsCap5 [6] = molecular target: T6, AsCap5 (Asticcacaulis sp., UniProt Z9IC27YPF2, D349A); details: activator; 10 nM cGAMP; linearized plasmid 25 nM; 1 mM MgCl2, 0.5 mM MnCl2, pH 7.4, 37 °C, 15 min
T6 construct: full length; E. coli BL21(DE3), N-terminal 6xHis-SUMO tag cut with Ulp1; codon-optimized gene; homodimer (N-terminal HNH, C-terminal SAVED)
T6 sequence (Z9IC27YPF2 1-384 D349A): T1 sequence (Z9IC27YPF2 1-384 R310Q) with Q310R, D349A

AsCap5 [7] = molecular target: T7, AsCap5 (Asticcacaulis sp., UniProt Z9IC27YPF2, K347R); details: activator; 10 nM cGAMP; linearized plasmid 25 nM; 1 mM MgCl2, 0.5 mM MnCl2, pH 7.4, 37 °C, 15 min
T7 construct: full length; E. coli BL21(DE3), N-terminal 6xHis-SUMO tag cut with Ulp1; codon-optimized gene; homodimer (N-terminal HNH, C-terminal SAVED)
T7 sequence (Z9IC27YPF2 1-384 K347R): T1 sequence (Z9IC27YPF2 1-384 R310Q) with Q310R, K347R

AsCap5 [8] = molecular target: T8, AsCap5 (Asticcacaulis sp., UniProt Z9IC27YPF2, K347Q); details: activator; 10 nM cGAMP; linearized plasmid 25 nM; 1 mM MgCl2, 0.5 mM MnCl2, pH 7.4, 37 °C, 15 min
T8 construct: full length; E. coli BL21(DE3), N-terminal 6xHis-SUMO tag cut with Ulp1; codon-optimized gene; homodimer (N-terminal HNH, C-terminal SAVED)
T8 sequence (Z9IC27YPF2 1-384 K347Q): T1 sequence (Z9IC27YPF2 1-384 R310Q) with Q310R, K347Q

AsCap5 [9] = molecular target: T9, AsCap5 (Asticcacaulis sp., UniProt Z9IC27YPF2, D220A); details: activator; 10 nM cGAMP; linearized plasmid 25 nM; 1 mM MgCl2, 0.5 mM MnCl2, pH 7.4, 37 °C, 15 min
T9 construct: full length; E. coli BL21(DE3), N-terminal 6xHis-SUMO tag cut with Ulp1; codon-optimized gene; homodimer (N-terminal HNH, C-terminal SAVED)
T9 sequence (Z9IC27YPF2 1-384 D220A): T1 sequence (Z9IC27YPF2 1-384 R310Q) with D220A, Q310R

LlCap5 [10] = molecular target: T5, LlCap5; details: activator; 50 nM Cap5, linearized plasmid 25 nM; 1 mM MgCl2, 0.5 mM MnCl2, pH 7.4, 37 °C, 15 min; 10-fold dilution steps; remark: listed apart in the source
AsCap5 [11] = molecular target: T2, AsCap5; details: activator; 50 nM Cap5, linearized plasmid 25 nM; 1 mM MgCl2, 0.5 mM MnCl2, pH 7.4, 37 °C, 15 min; 10-fold dilution steps; remark: listed apart in the source

| concentration giving significant DNA degradation (AsCap5 [2]) | % reduction of activity (AsCap5 [3]) | concentration giving significant DNA degradation (LlCap5 [5]) | fold less active than wild type (AsCap5 [7]) | estimated activity (% of wild type) (AsCap5 [9]) | concentration giving same degradation as 10 nM 3′,2′-cGAMP (LlCap5 [10]) | concentration giving same degradation as 10 nM 3′,2′-cGAMP (AsCap5 [11]) | Compound | estimated activity (AsCap5 [1]) | estimated activity (AsCap5 [4]) | estimated activity (AsCap5 [6]) | estimated activity (AsCap5 [8]) |
| --- | --- | --- | --- | --- | --- | --- | --- | --- | --- | --- | --- |
| ~ 10 nM | ~ 98% | ~ 10 nM | ~ 10 fold | ~ 15% | – | – | Nc1nc2c(ncn2[C@@H]2O[C@@H]3COP(=O)(O)O[C@@H]4[C@H](O)[C@@H](COP(=O)(O)O[C@H]3[C@H]2O)O[C@H]4n2cnc3c(N)ncnc32)c(=O)[nH]1 [3′,2′-cGAMP] | R310K and R310Q mutants, and both also showed significantly reduced activities | R310K and R310Q mutants, and both also showed significantly reduced activities | D349A mutation showed a similar degree of reduced activity as D220A mutation | it was even less active than K347A mutant |
| – | – | – | – | – | ~ 100 μM | ~ 100 μM | Nc1nc2c(ncn2[C@@H]2O[C@@H]3COP(=O)(O)O[C@H]4[C@@H](O)[C@H](n5cnc6c(N)ncnc65)O[C@@H]4COP(=O)(O)O[C@H]3[C@H]2O)c(=O)[nH]1 [3′,3′-cGAMP] | – | – | – | – |
